Literature values in US8404891B2, “Storage-stable formulation of paracetamol in aqueous solution” (Neogen N.V., priority 2009, dated 2013).

Conditions: aqueous solution; K. T. Koshy et al., 1961

- pH at which rate of degradation is minimal: ~6
Compound: CC(=O)Nc1ccc(O)cc1 [paracetamol, N-(4-hydroxy-phenyl)acetamide]
